Results: patent US7718677B2, “Methods and compositions for reduction of side effects of therapeutic treatments” (priority 2007, dated 2010)
Several values for one entry are separate records, joined by “and”; a condition that tells them apart may be missing. Identical values can stand only once.

Experiments:
[1] = test system: Squirrel (Saimiri sciureus) monkeys with nigrostriatal damage; experiment: Levodopa-induced dyskinesias in MPTP-lesioned monkeys, nicotine in drinking solution before levodopa (Example 1); format: in vivo; conditions: scale 0-4, mean ± SE
Description: Animals: Squirrel (Saimiri sciureus) monkeys (n=7) were purchased from World Wide Primates (Miami, Fla.). The animals weighed between 0.6-0.9 kg and were in mid to late adulthood as determined from their general appearance (dentition, fur, other). Female monkeys were used since older animals were available that may better model Parkinson's disease. The animals were placed in quarantine upon arrival, and maintained in a temperature-controlled room (27±3° C.) with a relative humidity>30%, under a 13/11-hour light/dark cycle. Monkey food chow and fruits/vegetables were provided once daily, with water provided ad libitum. The monkeys were housed in separate cages to allow for clear behavioral assessments. The animals were released from quarantine after 1 month and treatments initiated. All procedures conformed to the National Institutes of Health Guide for the Care and Use of Laboratory Animals and were approved by the Institutional Animal Care and Use Committee at the Parkinson's Institute.
(§1) 1-Methyl-4-phenyl-1,2,3,6-tetrahydropyridine (MPTP) administration: Prior to lesioning, the animals were allowed to acclimate to the colony and rated for parkinsonism as described (Langston et al. Ann Neurol. 2000; 47:S79-89). All values were within the normal range. The monkeys were then injected subcutaneously with 2.0 mg/kg MPTP (Sigma, St-Louis, Mo.) dissolved in saline. The animals were rated for parkinsonism 3-4 weeks after MPTP administration. The disability scores ranged from 0 (normal) to 28 for a severely parkinsonian animal. Animals were assessed for 1) spatial hypokinesia (reduction in use of the available cage space), 2) body bradykinesia (increased slowness in body movement), 3) left and 4) right manual dexterity, 5) balance, 6) freezing and 7) action tremor. If they were not parkinsonian, MPTP injection (1.0-2.0 mg/kg) was repeated from 2-5 times for total doses of 3.5 to 13.5 mg/kg. Despite multiple MPTP dosing, two of the animals were not stably parkinsonian.
Nicotine treatment: All monkeys (n=7) were then given a drinking solution for 3 weeks consisting of commercially available orange Gatorade® to mask nicotine's bitter taste (FIG. 1). The control group (n=4) was continued on Gatorade® only, while nicotine (free base) was added to the Gatorade of the treated group (n=3). Nicotine dosing was started at 50 μg/ml for 1 week, 150 μg/ml for 1 week, with the concentration increased by […] over the next few weeks, up to 650 μg/ml (FIG. 1).
Levodopa administration: Monkeys were administered levodopa/carbidopa (5 mg/kg and 1.25 mg/kg, respectively), prepared by crushing a tablet of Sinemet® CR 100/25 (DuPont Pharma) and dissolving it in water. This dose of levodopa is within the range of that prescribed to Parkinson's disease patients. The monkeys were gavaged twice daily at 3.5-hour intervals for 8 weeks at a time using a 5-day-on/2-day-off schedule (Hsu et al., J Pharmacol Exp Ther. 2004; 311:770-777). During levodopa treatment, the monkeys were given fruits in the morning and food pellets 3.5 hours after the afternoon levodopa dose to optimize gastrointestinal absorption.
Dyskinesias were rated from videotapes, as described (Hsu et al., J Pharmacol Exp Ther. 2004; 311:770-777). This included a one hour baseline period (no drugs) from ˜8:00-9:00 AM, followed by two 3.5-hour treatment periods with levodopa starting at ˜9:00 AM and ˜12:30 PM. Dyskinesias were rated for 2-minute periods at 30-minute intervals by two independent raters blinded to treatment. They were rated on a scale of 0 (no dyskinesias) to 4; a score of 1 was indicative of subtle dyskinesias that were not sustained; 2, mild dyskinesias that were sustained; 3, moderate dyskinesias that impaired the ability to remain stationary; 4, severe dyskinesias that were generalized and incapacitating.
Data analyses: The levodopa treatment protocol used in the present study involved a 5-day-on/2-day-off schedule.

[2] = test system: MPTP-lesioned squirrel monkeys; experiment: Parkinsonism rating on or off levodopa in MPTP-lesioned monkeys; format: in vivo, Saimiri sciureus; parameters: key to Parkinson Ratings Expt 1 / Parkinson Ratings Expt 2 (crossover): disability score 0 = normal to 28 = severely parkinsonian
Description: as §1
Data analyses: The levodopa treatment protocol used in the present study involved a 5-day-on/2-day-off schedule. Parkinsonian ratings were done on Monday and Friday of each week, with the score averaged over the two days. Dyskinesias ratings were determined by averaging the scores on Wednesday and Thursday of each week. All values are expressed as the mean±SE of the indicated number of animals. Results were compared using paired t-tests or analysis of variance (ANOVA) followed by Bonferroni multiple comparison post hoc test, using Prism® program (GraphPad Software, Inc, San Diego, Calif.). A level of 0.05 was considered significant.
White bars indicate no nicotine treatment and black bars indicate nicotine treatment. Parkinsonism was evaluated immediately before the afternoon L-dopa dose and 1.5 to 2 hours after L-dopa treatment, when a maximal antiparkinsonian effect is anticipated. Two of the seven animals in the study were not parkinsonian, and therefore were not included in this analysis. Error bars are the means±standard error of five animals before and after crossover of nicotine treatment. **p<0.01, as compared with the same group with no L-dopa treatment by a Mann-Withney test.

[3] = general description; cited from earlier work
[4] = on levodopa treatment, 1.5-2 hours after dosing, individual animals, scale 0-28

SMILES: N[C@@H](Cc1ccc(O)c(O)c1)C(=O)O [levodopa, (−)-L-a-amino-b-(3,4-dihydroxybenzene) propanoic acid]
- dyskinetic ratings 3 hours after the afternoon levodopa treatment ([1]; week 2/3 of levodopa treatment, levodopa/carbidopa 5/1.25 mg/kg twice daily): 0.5 ± 0.3
- dyskinetic ratings 3 hours after the afternoon levodopa treatment ([1]; week 4 of levodopa treatment): 1.0 ± 0.4
- dyskinetic ratings 3 hours after the afternoon levodopa treatment ([1]; week 6 of levodopa treatment): 1.1 ± 0.2
- dyskinetic ratings 3 hours after the afternoon levodopa treatment ([1]; week 8 of levodopa treatment): 0.9 ± 0.1
- parkinsonism ratings ([2]; measured 1.5-2 hours after levodopa dosing): reduced
- Parkinson Ratings Expt 1 [2, 4]: 0.4 (2×) and 0.6
- Parkinson Ratings Expt 2 (crossover) [2, 4]: 1.8 and 0.9
- Parkinson Ratings Mean ± SE (n) ([2]; on levodopa treatment, 1.5-2 hours after dosing, n=5): 0.8 ± 0.3 (5)
- solubility in water [3]: slightly soluble
